#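 Dose response: 5 concentrations. Exposure: 48 h. Format: 96-well plates. Endpoint: linear interpolation; highest concentration if not reached. TGI marks complete inhibition of growth.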
# Legend:
# Assay in all cases: NCI tumour cell line growth inhibition, 48 h
# 786-0 renal = tested on: 786-0 renal
# A498 renal = tested on: A498 renal
# A549 NSCLC = tested on: A549 NSCLC
# ACHN renal = tested on: ACHN renal
# BT-549 breast = tested on: BT-549 breast
# CAKI-1 renal = tested on: CAKI-1 renal
# CCRF-CEM leukemia = tested on: CCRF-CEM leukemia
# COLO 205 colon = tested on: COLO 205 colon
# DU-145 prostate = tested on: DU-145 prostate
# EKVX NSCLC = tested on: EKVX NSCLC
# HCT-116 colon = tested on: HCT-116 colon
# HCT-15 colon = tested on: HCT-15 colon
# HL-60(TB) leukemia = tested on: HL-60(TB) leukemia
# HOP-62 NSCLC = tested on: HOP-62 NSCLC
# HOP-92 NSCLC = tested on: HOP-92 NSCLC
# HS 578T breast = tested on: HS 578T breast
# HT29 colon = tested on: HT29 colon
# IGROV1 ovarian = tested on: IGROV1 ovarian
# K-562 leukemia = tested on: K-562 leukemia
# KM12 colon = tested on: KM12 colon
# LOX IMVI melanoma = tested on: LOX IMVI melanoma
# M14 melanoma = tested on: M14 melanoma
# MALME-3M melanoma = tested on: MALME-3M melanoma
# MCF7 breast = tested on: MCF7 breast
# MDA-MB-231 breast = tested on: MDA-MB-231 breast
# MDA-MB-435 = tested on: MDA-MB-435
# MDA-N = tested on: MDA-N
# MOLT-4 leukemia = tested on: MOLT-4 leukemia
# NCI-H226 lung = tested on: NCI-H226 lung
# NCI-H23 lung = tested on: NCI-H23 lung
# NCI-H460 lung = tested on: NCI-H460 lung
# NCI-H522 lung = tested on: NCI-H522 lung
# NCI/ADR-RES ovarian = tested on: NCI/ADR-RES ovarian
# OVCAR-3 ovarian = tested on: OVCAR-3 ovarian
# OVCAR-4 ovarian = tested on: OVCAR-4 ovarian
# OVCAR-5 ovarian = tested on: OVCAR-5 ovarian
# OVCAR-8 ovarian = tested on: OVCAR-8 ovarian
# PC-3 prostate = tested on: PC-3 prostate
# RPMI-8226 leukemia = tested on: RPMI-8226 leukemia
# RXF 393 renal = tested on: RXF 393 renal
# SF-268 CNS = tested on: SF-268 CNS
# SF-295 CNS = tested on: SF-295 CNS
# SF-539 CNS = tested on: SF-539 CNS
# SK-MEL-2 melanoma = tested on: SK-MEL-2 melanoma
# SK-MEL-28 melanoma = tested on: SK-MEL-28 melanoma
# SK-MEL-5 melanoma = tested on: SK-MEL-5 melanoma
# SK-OV-3 ovarian = tested on: SK-OV-3 ovarian
# SN12C renal = tested on: SN12C renal
# SNB-19 CNS = tested on: SNB-19 CNS
# SNB-75 CNS = tested on: SNB-75 CNS
# SW-620 colon = tested on: SW-620 colon
# T-47D breast = tested on: T-47D breast
# TK-10 renal = tested on: TK-10 renal
# U251 CNS = tested on: U251 CNS
# UACC-257 melanoma = tested on: UACC-257 melanoma
# UACC-62 melanoma = tested on: UACC-62 melanoma
# UO-31 renal = tested on: UO-31 renal
# HCC-2998 colon = tested on: HCC-2998 colon
smiles,measurement,setting,value
O=C1NC(N/N=C/c2c[nH]c3ccccc23)=N/C1=C\c1cccs1,TGI,786-0 renal,> 100 µM
same,TGI,A498 renal,71.9 µM
same,TGI,A549 NSCLC,> 100 µM
same,TGI,ACHN renal,> 100 µM
same,TGI,BT-549 breast,> 100 µM
same,TGI,CAKI-1 renal,> 100 µM
same,TGI,CCRF-CEM leukemia,> 100 µM
same,TGI,COLO 205 colon,> 100 µM
same,TGI,DU-145 prostate,> 100 µM
same,TGI,EKVX NSCLC,> 100 µM
same,TGI,HCT-116 colon,> 100 µM
same,TGI,HCT-15 colon,> 100 µM
same,TGI,HL-60(TB) leukemia,60.6 µM
same,TGI,HOP-62 NSCLC,> 100 µM
same,TGI,HOP-92 NSCLC,> 100 µM
same,TGI,HS 578T breast,> 100 µM
same,TGI,HT29 colon,> 100 µM
same,TGI,IGROV1 ovarian,> 100 µM
same,TGI,K-562 leukemia,> 100 µM
same,TGI,KM12 colon,> 100 µM
same,TGI,LOX IMVI melanoma,> 100 µM
same,TGI,M14 melanoma,> 100 µM
same,TGI,MALME-3M melanoma,> 100 µM
same,TGI,MCF7 breast,> 100 µM
same,TGI,MDA-MB-231 breast,> 100 µM
same,TGI,MDA-MB-435,> 100 µM
same,TGI,MDA-N,> 100 µM
same,TGI,MOLT-4 leukemia,> 100 µM
same,TGI,NCI-H226 lung,> 100 µM
same,TGI,NCI-H23 lung,> 100 µM
same,TGI,NCI-H460 lung,> 100 µM
same,TGI,NCI-H522 lung,> 100 µM
same,TGI,NCI/ADR-RES ovarian,> 100 µM
same,TGI,OVCAR-3 ovarian,77.3 µM
same,TGI,OVCAR-4 ovarian,> 100 µM
same,TGI,OVCAR-5 ovarian,> 100 µM
same,TGI,OVCAR-8 ovarian,> 100 µM
same,TGI,PC-3 prostate,> 100 µM
same,TGI,RPMI-8226 leukemia,> 100 µM
same,TGI,RXF 393 renal,> 100 µM
same,TGI,SF-268 CNS,> 100 µM
same,TGI,SF-295 CNS,> 100 µM
same,TGI,SF-539 CNS,> 100 µM
same,TGI,SK-MEL-2 melanoma,> 100 µM
same,TGI,SK-MEL-28 melanoma,> 100 µM
same,TGI,SK-MEL-5 melanoma,> 100 µM
same,TGI,SK-OV-3 ovarian,> 100 µM
same,TGI,SN12C renal,> 100 µM
same,TGI,SNB-19 CNS,> 100 µM
same,TGI,SNB-75 CNS,> 100 µM
same,TGI,SW-620 colon,> 100 µM
same,TGI,T-47D breast,> 100 µM
same,TGI,TK-10 renal,> 100 µM
same,TGI,U251 CNS,> 100 µM
same,TGI,UACC-257 melanoma,> 100 µM
same,TGI,UACC-62 melanoma,> 100 µM
same,TGI,UO-31 renal,> 100 µM
N#C/C(=N/Nc1nc[nH]c1C(N)=O)C(=O)Nc1ccccc1,TGI,786-0 renal,> 100 µM
same,TGI,A549 NSCLC,> 100 µM
same,TGI,ACHN renal,> 100 µM
same,TGI,BT-549 breast,> 100 µM
same,TGI,CCRF-CEM leukemia,> 100 µM
same,TGI,COLO 205 colon,> 100 µM
same,TGI,DU-145 prostate,> 100 µM
same,TGI,EKVX NSCLC,> 100 µM
same,TGI,HCC-2998 colon,> 100 µM
same,TGI,HCT-116 colon,> 100 µM
same,TGI,HCT-15 colon,> 100 µM
same,TGI,HL-60(TB) leukemia,> 100 µM
same,TGI,HOP-62 NSCLC,> 100 µM
same,TGI,HS 578T breast,> 100 µM
same,TGI,HT29 colon,> 100 µM
same,TGI,IGROV1 ovarian,> 100 µM
same,TGI,K-562 leukemia,> 100 µM
same,TGI,KM12 colon,> 100 µM
same,TGI,M14 melanoma,> 100 µM
same,TGI,MALME-3M melanoma,> 100 µM
same,TGI,MCF7 breast,> 100 µM
same,TGI,MDA-MB-231 breast,> 100 µM
same,TGI,MDA-MB-435,> 100 µM
same,TGI,MDA-N,> 100 µM
same,TGI,MOLT-4 leukemia,> 100 µM
same,TGI,NCI-H226 lung,> 100 µM
same,TGI,NCI-H23 lung,> 100 µM
same,TGI,NCI-H460 lung,> 100 µM
same,TGI,NCI-H522 lung,45.7 µM
same,TGI,NCI/ADR-RES ovarian,> 100 µM
same,TGI,OVCAR-3 ovarian,89.6 µM
same,TGI,OVCAR-4 ovarian,> 100 µM
same,TGI,OVCAR-5 ovarian,> 100 µM
same,TGI,OVCAR-8 ovarian,> 100 µM
same,TGI,PC-3 prostate,> 100 µM
same,TGI,RPMI-8226 leukemia,> 100 µM
same,TGI,RXF 393 renal,> 100 µM
same,TGI,SF-268 CNS,> 100 µM
same,TGI,SF-295 CNS,> 100 µM
same,TGI,SK-MEL-2 melanoma,> 100 µM
same,TGI,SK-MEL-28 melanoma,> 100 µM
same,TGI,SK-MEL-5 melanoma,> 100 µM
same,TGI,SK-OV-3 ovarian,> 100 µM
same,TGI,SN12C renal,> 100 µM
same,TGI,SNB-19 CNS,> 100 µM
same,TGI,SNB-75 CNS,> 100 µM
same,TGI,SW-620 colon,> 100 µM
same,TGI,T-47D breast,> 100 µM
same,TGI,TK-10 renal,> 100 µM
same,TGI,U251 CNS,> 100 µM
same,TGI,UACC-257 melanoma,> 100 µM
same,TGI,UACC-62 melanoma,> 100 µM
same,TGI,UO-31 renal,> 100 µM
CC1(C)SC2C(NC(=O)C(C(=O)O)c3ccccc3)C(=O)N2C1C(=O)O (configuration not stated),TGI,786-0 renal,> 100 µM
same,TGI,A498 renal,> 100 µM
same,TGI,ACHN renal,> 100 µM
same,TGI,BT-549 breast,> 100 µM
same,TGI,CAKI-1 renal,> 100 µM
same,TGI,CCRF-CEM leukemia,> 100 µM
same,TGI,COLO 205 colon,> 100 µM
same,TGI,DU-145 prostate,> 100 µM
same,TGI,EKVX NSCLC,> 100 µM
same,TGI,HCT-116 colon,> 100 µM
same,TGI,HCT-15 colon,> 100 µM
same,TGI,HL-60(TB) leukemia,> 100 µM
same,TGI,HOP-62 NSCLC,> 100 µM
same,TGI,HS 578T breast,> 100 µM
same,TGI,HT29 colon,> 100 µM
same,TGI,IGROV1 ovarian,> 100 µM
same,TGI,K-562 leukemia,> 100 µM
same,TGI,KM12 colon,> 100 µM
same,TGI,LOX IMVI melanoma,> 100 µM
same,TGI,M14 melanoma,> 100 µM
same,TGI,MALME-3M melanoma,> 100 µM
same,TGI,MCF7 breast,> 100 µM
same,TGI,MDA-MB-231 breast,> 100 µM
same,TGI,MDA-MB-435,> 100 µM
same,TGI,MDA-N,> 100 µM
same,TGI,MOLT-4 leukemia,> 100 µM
same,TGI,NCI-H226 lung,> 100 µM
same,TGI,NCI-H23 lung,> 100 µM
same,TGI,NCI/ADR-RES ovarian,> 100 µM
same,TGI,OVCAR-3 ovarian,> 100 µM
same,TGI,OVCAR-5 ovarian,> 100 µM
same,TGI,OVCAR-8 ovarian,> 100 µM
same,TGI,PC-3 prostate,> 100 µM
same,TGI,RPMI-8226 leukemia,> 100 µM
same,TGI,RXF 393 renal,> 100 µM
same,TGI,SF-268 CNS,> 100 µM
same,TGI,SF-295 CNS,> 100 µM
same,TGI,SF-539 CNS,> 100 µM
same,TGI,SK-MEL-2 melanoma,> 100 µM
same,TGI,SK-MEL-28 melanoma,> 100 µM
same,TGI,SK-MEL-5 melanoma,> 100 µM
same,TGI,SK-OV-3 ovarian,> 100 µM
same,TGI,SN12C renal,> 100 µM
same,TGI,SNB-19 CNS,> 100 µM
same,TGI,SNB-75 CNS,> 100 µM
same,TGI,SW-620 colon,> 100 µM
same,TGI,T-47D breast,> 100 µM
same,TGI,TK-10 renal,> 100 µM
same,TGI,U251 CNS,> 100 µM
same,TGI,UACC-257 melanoma,> 100 µM
same,TGI,UACC-62 melanoma,> 100 µM
same,TGI,UO-31 renal,> 100 µM

# — PubChem BioAssay (NCI)
